Measured values published in patent US20130040882A1, “USE OF FIBROBLAST GROWTH FACTOR FRAGMENTS” (NOVARTIS AG, priority 2003, published 2013).
“Also recorded” adds a separate entry of the source.

Key:
[1] = test system: uterine gene expression; assay: Gene expression profiling (HGU133A) in the uterus of ovariectomized monkeys treated with estradiol, tamoxifen or raloxifene; format: in vivo, cynomolgus monkeys (Macaca fascicularis)
[2] = test system: luteinising hormone and follicle-stimulating hormone genes in the pituitary gland; assay: Gene expression (HGU133A) in the pituitary gland of ovariectomized monkeys treated with estradiol, tamoxifen or raloxifene; format: in vivo, cynomolgus monkeys (Macaca fascicularis); settings: OVX monkeys
Experimental: Female sexually mature cynomolgus monkeys (Macaca fascicularis obtained from R. C. Hartelust B V, Tilburg, the Netherlands) approximately 48 months old were subjected to surgery (ovarectomy [OVX] or sham) 10 weeks prior to treatment and were treated for parasitic arthropods and helminthes, subjected to a tuberculin testing, and acclimated to the treatment facility for at least 14 days before beginning treatment.
Surgical Procedures. The ovariectomized cynomolgus monkey (Macaca fascicularis), which has been validated as a useful model predictive of outcomes in human clinical trials of estrogen and SERMs (Cline J M et al., Toxicol Pathol. 29:84-90 (2001)), was used as a model of estrogen deficiency. Animals were ovariectomized approximately 10 weeks before the first day of treatment. The ovaries were removed following anesthesia with a combined intramuscular injection of xylazine (Rompun®: 0.4 mL/animal, Bayer Pharma Division Sante Animale, Puteaux, France) and ketamine hydrochloride (Imalgéne®: 0.6 mL/kg, Mérial, Lyon, France). Sham-operated animals were subjected to the same surgical procedure, except for the removal of ovaries.
Ovariectomized and sham-operated animals were divided into groups of 4 and treated as outlined below.
Gene expression was determined in the pituitary and uterus at the end of drug therapy. Tissues to be analyzed (pituitary glands and uterus) were excised, snap frozen in liquid nitrogen, and stored at −80° C. until RNA extraction was performed.
Total RNA was obtained by acid guanidinium isothiocyanate-phenol-chloroform extraction (Trizol; Invitrogen Life Technologies, San Diego, Calif., USA) and purified on an affinity resin column (RNeasy; Qiagen, Hilden, Germany) according to manufacturer instructions. […] Lockhart D J, Dong H, Byrne M C, et al. Nat. Biotechnol. 1996; 14:1675-1680.
Previous studies have proven the validity of cross-species DNA chip analysis (Hacia J G et al. Nat Genet. 18:155-158 (1998)), therefore, the human gene expression probe arrays HGU133A (Affymetrix, Santa Clara, Calif., USA) containing 22,283 probe sets interrogating primarily annotated human genes were used. One GeneChip was used per tissue, per animal. The resulting image files (.dat files) were processed using the Microarray Analysis Suite 5 (MAS5) software (Affymetrix, Inc.). Tab-delimited files were obtained containing data regarding signal intensity (Signal) and categorical expression level measurement (Absolute Call).

[3] = test system: gene expression in organs; assay: Blind monkey trial of three peptides: gene expression profiling of organs on Affymetrix U95 chips; format: in vivo, cynomolgus monkeys; settings: 100 μg/animal/day sc, two weeks
[4] = compared with untreated OVX controls

O=C(c1ccc(OCCN2CCCCC2)cc1)c1c(-c2ccc(O)cc2)sc2cc(O)ccc12 [Ralolxifene]
Fold change relative to SHAM control: Cadherin 11, type 2, OB-cadherin (osteoblast) ([1]; uterus, OVX monkeys): 0.8 fold | Fold change relative to SHAM control: Calcium channel, voltage-dependent, beta 2 subunit ([1]; uterus, OVX monkeys): 1.5 fold | Fold change relative to SHAM control: Catenin (cadherin-associated protein), alpha-like 1 ([1]; uterus, OVX monkeys): 1.5 fold | Fold change relative to SHAM control: Dishevelled associated activator of morphogenesis 1 ([1]; uterus, OVX monkeys): 0.6 fold | Fold change relative to SHAM control: Four and a half LIM domains 2 ([1]; uterus, OVX monkeys): 0.6 fold | Fold change relative to SHAM control: Integrin, beta 5 ([1]; uterus, OVX monkeys): 0.9 fold | Fold change relative to SHAM control: LDL receptor adaptor protein ([1]; uterus, OVX monkeys): 1.4 fold | Fold change relative to SHAM control: LIM and senescent cell antigen-like domains 1 ([1]; uterus, OVX monkeys): 0.8 fold | Fold change relative to SHAM control: Mitogen-activated protein kinase kinase kinase kinase 4 ([1]; uterus, OVX monkeys): 1.2 fold | Fold change relative to SHAM control: Phosphatase and tensin homolog (mutated in multiple advanced cancers 1) ([1]; uterus, OVX monkeys): 0.7 fold | Fold change relative to SHAM control: Phospholipid transfer protein ([1]; uterus, OVX monkeys): 0.7 fold | Fold change relative to SHAM control: Progesterone receptor ([1]; uterus, OVX monkeys): 0.6 fold | Fold change relative to SHAM control: Protein tyrosine kinase 9 ([1]; uterus, OVX monkeys): 0.8 fold | Fold change relative to SHAM control: Secreted frizzled-related protein 1 ([1]; uterus, OVX monkeys): 0.8 fold | Fold change relative to SHAM control: Secreted frizzled-related protein 4 ([1]; uterus, OVX monkeys): 0.4 fold | Fold change relative to SHAM control: Wingless-type MMTV integration site family, member 2B ([1]; uterus, OVX monkeys): 0.8 fold | Fold change relative to SHAM control: Wingless-type MMTV integration site family, member 16 ([1]; uterus, OVX monkeys): 0.8 fold | Fold change relative to SHAM control: Insulin receptor ([1]; uterus, OVX monkeys, Table 46): 1.4 fold

C[C@]12CC[C@@H]3c4ccc(O)cc4CC[C@H]3[C@@H]1CC[C@@H]2O [estradiol]
Uterine expression increase: transport genes [1]: 2-7 fold | Uterine expression downregulation: thioredoxin interacting protein ([1]; compared with OVX control): 3 fold | Uterine expression increase: Collagen type 1 alpha 2 ([1]; compared with OVX controls): 13.2 fold | Uterine expression increase: cell cycle proteins (CDC28 protein kinase regulatory subunit 2) ([1]; compared with OVX controls): up to 4 fold | Uterine expression increase: collagen type 1 alpha1 ([1]; compared with OVX controls): 6.6 fold | Uterine expression increase: collagen type III alpha 1 ([1]; compared with OVX controls): 6.8 fold | Uterine expression increase: collagen type IV alpha 1 ([1]; compared with OVX controls): 4.3 fold | Uterine expression increase: cysteine-rich angiogenic inducer 61 ([1]; compared with OVX controls): 3.5 fold | Uterine expression increase: insulin-like GF binding protein 2 (36 kDa) ([1]; compared with OVX controls): 7.1 fold | Uterine expression increase: insulin-like growth factor binding protein 5 ([1]; compared with OVX controls): 5.2 fold | Uterine expression increase: latent transforming growth factor beta binding protein 1 ([1]; compared with OVX controls): 3.6 fold | Uterine expression increase: Dishevelled associated activator of morphogenesis 1 [1, 4]: 3.1 fold | Uterine expression increase: integrin (beta 5) [1, 4]: 1.7 fold | Uterine expression increase: progesterone receptor [1, 4]: 9.8 fold | Uterine expression increase: secreted frizzled-related protein 1 [1, 4]: 7.1 fold | Uterine expression increase: secreted frizzled-related protein 4 [1, 4]: 4.2 fold | Uterine expression increase: wingless-type MMTV integration site (family, member 2B; wnt2B) [1, 4]: 2.6 fold | Decrease of FSH transcripts in the pituitary gland [2]: 73.4 fold | Decrease of LH transcripts in the pituitary gland [2]: 16.4 fold

Peptide 3: leukemia inhibitory factor
Conclusions of the in vivo Profiling by the Data Mining Team: Function/Pathway [3]: Ca^++ bone metabolism; also recorded: Inflammation; also recorded: Immunosuppression; also recorded: Vascular differentiation | Findings by the Data Mining Team: Skeletal muscle (gene with direction) [3]: JunB and haptoglobin and phospholipase A2 typeIIA+
